The conditions of series [1]: for Normal melting temperature: Crystal, DTA; for mass density: 298.15 K, 101.33 kPa, Liquid, Vibrating tube method.
The nature of series [2]: Molar enthalpy of transition or fusion. As to conditions: Crystal; DSC.

Where “and” joins values, the source holds several entries; their conditions need not be identical. Identical values can stand only once. ± gives the expanded uncertainty stated by the source.

In the case of `CC(=O)Oc1ccccc1C(=O)O` [2-acetoxybenzoic acid], the Normal melting temperature in series [1] amounted to 135.50 ± 0.7 °C. In series [2], the “Molar enthalpy of transition or fusion” value was 8.01 ± 0.174 kcal/mol. With `CC(=O)Nc1ccc(O)cc1` [N-acetyl-p-aminophenol], in series [1], the Normal melting temperature is 169.20 ± 0.7 °C. In series [2], the “Molar enthalpy of transition or fusion” value worked out at 6.57 ± 0.146 kcal/mol.

Take `CCO` [ethanol]: in series [1], the mass density was 785.02 ± 0.12 kg/m3. `NC(N)=Nc1nc(CSCC/C(N)=N/S(N)(=O)=O)cs1` [famotidine]: the “Molar enthalpy of transition or fusion” value in series [2] was 11.5 kcal/mol and 12 kcal/mol. Turning to `N=C(N)N` [guanidine], in series [1], the Normal melting temperature amounted to 141.00 ± 0.7 °C. Further, the “Molar enthalpy of transition or fusion” value in series [2] was 8.48 ± 0.184 kcal/mol.

Consider `CO` [methanol], for which the mass density in series [1] is listed as 786.59 ± 0.12 kg/m3.

For `CCCCCCCCO` [octan-1-ol], the mass density in series [1] was 821.6 ± 0.11 kg/m3.

In the case of `CC(C)O` [propan-2-ol], the mass density in series [1] is recorded as 780.8 ± 0.13 kg/m3.

What is called mass density is mass per unit of volume.

Source of the values: the NIST ThermoML archive (doi:10.1016/j.fluid.2015.07.032).
